Values of other authors as cited in paper PMC5646416 (Journal of clinical pharmacy and therapeutics, 2017).

Details: single-dose pharmacokinetic studies

AUC higher in rs4149056 CC homozygotes than in rs4149056 TT homozygotes | SMILES
162–191% | O=C(O)C[C@H](O)C[C@H](O)/C=C/c1c(C2CC2)nc2ccccc2c1-c1ccc(F)cc1 [pitavastatin]
57–130% | CC[C@H](C)C(=O)O[C@H]1C[C@H](O)C=C2C=C[C@H](C)[C@H](CC[C@@H](O)C[C@@H](O)CC(=O)O)[C@H]21 [pravastatin]
62–117% | CC(C)c1nc(N(C)S(C)(=O)=O)nc(-c2ccc(F)cc2)c1/C=C/[C@@H](O)C[C@@H](O)CC(=O)O [rosuvastatin]
221% | CCC(C)(C)C(=O)O[C@H]1C[C@@H](C)C=C2C=C[C@H](C)[C@H](CC[C@@H](O)C[C@@H](O)CC(=O)O)[C@H]21 [simvastatin acid]
